{
  "source": "BindingDB's records for doi:10.7270/Q2RJ4GVG",
  "about": "(The Scripps Research Institute Molecular Screening Center, 2007)",
  "data": [
    {"molecular_target": "T1, Isoform 2 of Nuclear receptor ROR-alpha (Alpha-2) (Homo sapiens, UniProt P35398)", "T1 sequence (P35398 whole entry)": "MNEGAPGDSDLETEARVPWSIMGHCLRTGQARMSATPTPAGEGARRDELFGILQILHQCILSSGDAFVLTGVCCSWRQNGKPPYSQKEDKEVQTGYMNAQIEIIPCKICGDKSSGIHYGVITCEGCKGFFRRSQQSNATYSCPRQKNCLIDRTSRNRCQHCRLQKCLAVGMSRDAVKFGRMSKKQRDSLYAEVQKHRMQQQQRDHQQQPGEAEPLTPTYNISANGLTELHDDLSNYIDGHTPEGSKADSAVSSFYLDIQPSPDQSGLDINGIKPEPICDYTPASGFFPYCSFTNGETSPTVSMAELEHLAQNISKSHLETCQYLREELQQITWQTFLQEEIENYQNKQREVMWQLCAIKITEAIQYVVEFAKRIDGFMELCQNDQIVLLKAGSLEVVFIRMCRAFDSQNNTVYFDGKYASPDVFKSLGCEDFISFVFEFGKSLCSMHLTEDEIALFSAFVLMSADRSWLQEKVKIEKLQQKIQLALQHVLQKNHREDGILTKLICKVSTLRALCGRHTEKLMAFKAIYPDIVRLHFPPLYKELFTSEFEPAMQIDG", "experiment": "RORA ligand-binding domain transactivation agonists – cell-based, CHO-K1, Gal4-RORA LBD, luciferase luminescence, dose response (AID 681)", "settings": "not given", "units": {"EC50": "µM"}, "values": [
      {"smiles": "Cc1ccc2nc(Nc3ccc4[nH]c(O)nc4c3)c(-n3nc(C)cc3C)nc2c1", "note": "[5-[[3-(3,5-dimethyl-1-pyrazolyl)-6-methyl-2-quinoxalinyl]amino]-1,3-dihydrobenzimidazol-2-one]", "EC50": "> 3.67"},
      {"smiles": "COc1cccc(-c2noc(-c3cccs3)n2)c1", "note": "[3-(3-methoxyphenyl)-5-(2-thienyl)-1,2,4-oxadiazole]", "EC50": "> 0.407"},
      {"smiles": "Cc1cc(NC(=O)c2oc3ccccc3c2C)ccc1-n1cnnn1", "note": "[3-Methyl-benzofuran-2-carboxylic acid (3-methyl-4-tetrazol-1-yl-phenyl)-amide]", "EC50": 8.22},
      {"smiles": "CC1=CCC(COC(=O)Nc2ccccc2)CC1", "note": "(configuration not stated) [(4-methylcyclohex-3-en-1-yl)methyl N-phenylcarbamate]", "EC50": 1.53},
      {"smiles": "O=C(Nc1ccc2nc(-c3ccc(Br)o3)[nH]c2c1)c1cccs1", "note": "[SMR000046012]", "EC50": 4.09},
      {"smiles": "COC(=O)c1c(NC(=O)CC2SCC(C(=O)OC)NC2=O)sc2c1CCCC2", "note": "(configuration not stated) [6-[2-[(3-carbomethoxy-4,5,6,7-tetrahydrobenzothiophen-2-yl)amino]-2-keto-ethyl]-5-keto-thiomorpholine-3-carboxylic acid methyl ester]", "EC50": "> 99"},
      {"smiles": "CC(C)CNS(=O)(=O)c1ccc(C(=O)Nc2ccc3c(c2)OCCO3)cc1", "note": "[MLS000032888]", "EC50": 3.48},
      {"smiles": "Cc1cccn2cc(-c3ccccc3)nc12", "note": "[8-methyl-2-phenyl-imidazo[1,2-a]pyridine]", "EC50": 0.563},
      {"smiles": "COc1ccc(CCC(=O)Nc2ccc3c(c2)OCCO3)cc1", "note": "[MLS000110197]", "EC50": "> 99"},
      {"smiles": "O=C1OC(N2CCN(Cc3ccccc3)CC2)c2ccccc21", "note": "(configuration not stated) [3-(4-benzylpiperazin-1-yl)-3H-2-benzofuran-1-one]", "EC50": "> 99"},
      {"smiles": "C=CCOc1ccc(C=CC(C)N=O)cc1", "note": "(configuration not stated) [(E)-4-(4-allyloxyphenyl)but-3-en-2-one oxime]", "EC50": 1.35},
      {"smiles": "Cc1ccc(-c2nc(C#N)c(NCc3ccco3)o2)cc1", "note": "[5-(2-furanylmethylamino)-2-(4-methylphenyl)-4-oxazolecarbonitrile]", "EC50": 2.32},
      {"smiles": "CCOC(=O)Nc1ccc2c(c1)Nc1ccccc1S2", "note": "[(10H-Phenothiazin-2-yl)-carbamic acid ethyl ester]", "EC50": 3.43},
      {"smiles": "Clc1ccc(-c2nnc(-c3ccccc3Cl)o2)cc1", "note": "[2-(2-chlorophenyl)-5-(4-chlorophenyl)-1,3,4-oxadiazole]", "EC50": 0.431},
      {"smiles": "COc1cc(C)c(C(C)C)cc1S(=O)(=O)n1cnc(C)c1", "note": "[1-(2-methoxy-4-methyl-5-propan-2-yl-phenyl)sulfonyl-4-methyl-imidazole]", "EC50": 1.85}
    ]},
    {"molecular_target": "T1, Isoform 2 of Nuclear receptor ROR-alpha (Alpha-2)", "experiment": "RORA ligand-binding domain transactivation agonists – cell-based, CHO-K1, Gal4-RORA LBD, luciferase luminescence, dose response (AID 681)", "settings": "inactive by the depositor's call", "units": {"EC50": "µM"}, "values": [
      {"smiles": "O=c1c2ccccc2nc2ccc(NCc3ccco3)nn12", "note": "[2-(2-furanylmethylamino)-10-pyridazino[6,1-b]quinazolinone]", "EC50": 10.8},
      {"smiles": "O=C(NCc1cccs1)c1noc2c1CCCC2", "note": "[MLS000087354]", "EC50": 10.1}
    ]}
  ]
}
